The values below come from patent US20260200920A1, “SUBSTITUTED AMINOPYRIDINE COMPOUNDS FOR USE AS AKT1 INHIBITORS” (Atavistik Bio, Inc., priority 2023, published 2026).

Assay [1] deals with T1, human recombinant kinase full-length AKT1 E17K (Homo sapiens, UniProt P31749, E17K).
T1 construct: Purified human recombinant kinase full-length AKT1 E17K was expressed in insect cells; made in house; host or cells: insect cells
In words: AKT1 E17K kinase assay (TR-FRET, Lance). The format is biochemical. The note with it: 0.6 nM AKT1 E17K, 50 nM Ulight-CREBtide, either 50 μM ATP or 2 mM ATP, 60 min at RT. In a few lines:
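IC50 came from a 10-point, 4-parameter fit of the 665/620 TR-FRET ratio read with Eu-anti-phospho-CREB (Ser133). Reaction at RT for 60 min after 15 min compound preincubation, using 0.6 nM PDPK1-activated full-length AKT1 E17K (insect-cell), 50 nM Ulight-CREBtide, ATP at 50 μM or 2 mM, HEPES pH 7.5, 1% DMSO.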

The target in assay [2] is T2, human recombinant kinase full-length wildtype AKT1 (Homo sapiens, UniProt P31749).
T2 construct: Purified human recombinant kinase full-length wildtype AKT1 was expressed in insect cells; made in house; host or cells: insect cells
T2 sequence (P31749 whole entry): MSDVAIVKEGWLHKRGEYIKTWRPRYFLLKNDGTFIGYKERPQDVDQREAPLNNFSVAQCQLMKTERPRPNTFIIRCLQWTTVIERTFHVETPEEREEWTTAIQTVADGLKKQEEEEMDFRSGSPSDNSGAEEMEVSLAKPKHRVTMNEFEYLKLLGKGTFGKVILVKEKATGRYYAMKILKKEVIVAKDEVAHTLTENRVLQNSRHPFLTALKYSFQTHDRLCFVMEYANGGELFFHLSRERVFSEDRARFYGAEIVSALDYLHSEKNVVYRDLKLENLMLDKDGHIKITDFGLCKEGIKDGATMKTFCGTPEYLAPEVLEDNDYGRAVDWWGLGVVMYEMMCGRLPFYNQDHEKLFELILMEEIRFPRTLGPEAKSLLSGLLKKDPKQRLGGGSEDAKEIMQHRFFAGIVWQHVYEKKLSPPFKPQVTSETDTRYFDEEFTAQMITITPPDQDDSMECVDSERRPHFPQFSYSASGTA
The experiment in a line: AKT1 kinase assay (wildtype, TR-FRET, Lance). The format is biochemical. The note with it: 0.6 nM wildtype AKT1, 50 nM Ulight-CREBtide, either 50 μM ATP or 2 mM ATP, 60 min at RT. Summed up:
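TR-FRET 665/620 ratio quantified phospho-CREBtide formed by PDPK1-activated full-length human AKT1 (0.6 nM, insect-cell-derived) over 60 min at RT with 50 nM ULight-CREBtide and either 50 μM or 2 mM ATP. Compounds were preincubated 15 min with enzyme; IC50 came from 4-parameter fits of 10-point duplicates.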
(In general: Time-resolved FRET reads energy transfer from a long-lived donor to a nearby acceptor.)

Bounds are passed on as bounds.

T1 sequence (P31749 whole entry E17K): as the sequence (P31749 whole entry) above, with E17K counted along it

The IC50 is the concentration at which inhibition is half-maximal. Take `CC(C)(C(=O)O)C1CCN(C(=O)c2ccc(-n3c(-c4cccnc4N)nc4ccc(-c5ccccc5)nc43)cc2)C1` (stereo not drawn) [Compound I-82, 2-(1-(4-(2-(2-aminopyridin-3-yl)-5-phenyl-3H-imidazo[4,5-b]pyridin-3-yl)benzoyl)pyrrolidin-3-yl)-2-methylpropanoic acid]: the IC50 is not below 2000 nM in assay [1] and less than 20000 nM in assay [2].

Turning to `CC1(C(=O)O)CCN(C(=O)c2ccc(-n3c(-c4cccnc4N)nc4ccc(-c5ccccc5)nc43)cn2)CC1` [Compound I-23, 1-(5-(2-(2-aminopyridin-3-yl)-5-phenyl-3H-imidazo[4,5-b]pyridin-3-yl)picolinoyl)-4-methylpiperidine-4-carboxylic acid], the values for the IC50 in assay [1] and in assay [2] were not below 2000 nM and 20000 to 80000 nM, respectively.

For the molecule `CC(C)(C(=O)O)C1CCN(Cc2ccc(-n3c(-c4cccnc4N)nc4ccc(-c5ccccc5)nc43)cc2)CC1` [Compound I-92, 2-(1-(4-(2-(2-aminopyridin-3-yl)-5-phenyl-3H-imidazo[4,5-b]pyridin-3-yl)benzyl)piperidin-4-yl)-2-methylpropanoic acid], the half-inhibitory concentration (IC50) in assay [1] is not below 2000 nM; in assay [2], less than 20000 nM.

Regarding `CC(c1ccc(-n2c(-c3cccnc3N)nc3ccc(-c4ccccc4)nc32)cc1)N(C)[C@H]1CC[C@H](C(=O)O)CC1` (stereo partly drawn) [Compound I-176], the results for the IC50 in assay [1] and in assay [2] were 500 to 2000 nM and less than 20000 nM, respectively.

Take `CCN(Cc1ccc(-n2c(-c3cccnc3N)nc3ccc(-c4ccccc4)nc32)cc1)[C@H]1CC[C@H](C(=O)O)CC1` [Compound I-167]: the results for the IC50 in assay [1] and in assay [2] were 500 to 2000 nM and less than 20000 nM, respectively.

With `Nc1ncccc1-c1nc2ccc(-c3ccccc3)nc2n1-c1ccc(C(=O)N[C@H]2CC[C@@H](C(=O)O)CC2)nc1` [Compound I-18, (1s,4s)-4-(5-(2-(2-aminopyridin-3-yl)-5-phenyl-3H-imidazo[4,5-b]pyridin-3-yl)picolinamido)cyclohexane-1-carboxylic acid], the IC50 in assay [1] was not below 2000 nM; in assay [2] it was less than 20000 nM.

In the case of `Cc1nc(NC(=O)[C@H]2CC[C@H](C(=O)O)CC2)ccc1-n1c(-c2cccnc2N)nc2ccc(-c3c(F)cccc3F)nc21` [Compound I-217], the IC50 was 500 to 2000 nM in assay [1] and less than 20000 nM in assay [2].

As to `CN(Cc1ccc(-n2c(-c3cccnc3N)nc3ccc(-c4ccccc4)nc32)c(F)c1)C12CCC(C(=O)O)(CC1)CC2` [Compound I-161], the IC50 in assay [1] was less than 500 nM; in assay [2], less than 20000 nM.

For `Nc1ncccc1-c1nc2ccc(-n3cccn3)cc2n1-c1ccc(C2CN(C[C@H]3CC[C@H](C(=O)O)CC3)C2)cc1` [Compound I-72, (1r,4r)-4-((3-(4-(2-(2-aminopyridin-3-yl)-6-(1H-pyrazol-1-yl)-1H-benzo[d]imidazol-1-yl)phenyl)azetidin-1-yl)methyl)cyclohexane-1-carboxylic acid], the results for the IC50 in assay [1] and in assay [2] were not below 2000 nM and less than 20000 nM, respectively.

Turning to `Nc1ncccc1-c1nc2ccc(-c3ccccc3F)nc2n1-c1ccc(C2CN(CC34CCC(C(=O)O)(CC3)CC4)C2)cc1` [Compound I-203], the IC50 is less than 500 nM in assay [1] and less than 20000 nM in assay [2].

`Nc1ncccc1-c1nc2ccc(-c3ccccc3)nc2n1-c1ccc(NC(=O)C23CC(C(=O)O)(C2)C3)nc1` [Compound I-7, 3-((5-(2-(2-aminopyridin-3-yl)-5-phenyl-3H-imidazo[4,5-b]pyridin-3-yl)pyridin-2-yl)carbamoyl)bicyclo[1.1.1]pentane-1-carboxylic acid]: the IC50 in assay [1] is not below 2000 nM; in assay [2], 20000 to 80000 nM.

Take `CN(Cc1ccc(-n2c(-c3cccnc3N)nc3ccc(-c4ccccc4)nc32)cc1)[C@H]1CC[C@@H](C(=O)O)CC1` [Compound I-95, (1s,4s)-4-((4-(2-(2-aminopyridin-3-yl)-5-phenyl-3H-imidazo[4,5-b]pyridin-3-yl)benzyl)(methyl)amino)cyclohexane-1-carboxylic acid]: the IC50 in assay [1] was less than 500 nM; in assay [2], less than 20000 nM.

With `CC(C)(C)c1ccc2nc(-c3cccnc3N)n(-c3ccc(NC(=O)[C@H]4CC[C@H](C(=O)O)CC4)nc3)c2c1` [Compound I-117, (1r,4r)-4-((5-(2-(2-aminopyridin-3-yl)-6-(tert-butyl)-1H-benzo[d]imidazol-1-yl)pyridin-2-yl)carbamoyl)cyclohexane-1-carboxylic acid], the figures for the IC50 in assay [1] and in assay [2] were not below 2000 nM and less than 20000 nM, respectively.

`C[C@]1(C(=O)O)CC[C@@H](CN2CC(c3ccc(-n4c(-c5cccnc5N)nc5ccc(-c6ccccc6)nc54)cc3)C2)CC1` [Compound I-75, (1s,4s)-4-((3-(4-(2-(2-aminopyridin-3-yl)-5-phenyl-311-imidazo[4,5-b]pyridin-3-yl)phenyl)azetidin-1-yl)methyl)-1-methylcyclohexane-1-carboxylic acid]: the values for the IC50 in assay [1] and in assay [2] were less than 500 nM and less than 20000 nM, respectively.

Take `CC(C)[C@@H]([C@H]1CC[C@H](C(=O)O)CC1)N1CC(c2ccc(-n3c(-c4cccnc4N)nc4ccc(-c5ccccc5)nc43)cc2)C1` [Compound I-74, (1S,4r)-4-((S)-1-(3-(4-(2-(2-aminopyridin-3-yl)-5-phenyl-3H-imidazo[4,5-b]pyridin-3-yl)phenyl)azetidin-1-yl)-2-methylpropyl)cyclohexane-1-carboxylic acid]: the IC50 in assay [1] was not below 2000 nM; in assay [2], less than 20000 nM.

As for `Cc1ccccc1-c1ccc2nc(-c3cccnc3N)n(-c3ccc(C4CN(C[C@H]5CC[C@H](C(=O)O)CC5)C4)cc3)c2n1` [Compound I-212], the half-maximal inhibitory concentration (IC50) in assay [1] is 500 to 2000 nM; in assay [2] it was less than 20000 nM.

As to `Nc1ncccc1-c1nc2ccc(-c3ccccc3F)nc2n1-c1ccc([C@@H]2CCN(C[C@H]3CC[C@@H](C(=O)O)CC3)C2)cc1` (single isomer, unassigned) [Compound I-229], the results for the IC50 in assay [1] and in assay [2] were 500 to 2000 nM and less than 20000 nM, respectively.

With `CC(C)(C)c1ccc2nc(-c3cccnc3N)n(-c3ccc(NC(=O)[C@H]4CC[C@H](C(=O)O)CC4)cc3)c2c1` [Compound I-35, (1r,4r)-4-((4-(2-(2-aminopyridin-3-yl)-6-(tert-butyl)-1H-benzo[d]imidazol-1-yl)phenyl)carbamoyl)cyclohexane-1-carboxylic acid], the IC50 in assay [1] was not below 2000 nM; in assay [2], less than 20000 nM.

Consider `Nc1ncccc1-c1nc2ccc(-c3ccccc3)nc2n1-c1ccc(CNC2CCC(C(=O)O)CC2)cc1` (stereo not drawn) [Compound I-31, 4-((4-(2-(2-aminopyridin-3-yl)-5-phenyl-3H-imidazo[4,5-b]pyridin-3-yl)benzyl)amino)cyclohexane-1-carboxylic acid], for which the IC50 in assay [1] was 500 to 2000 nM; in assay [2] it was less than 20000 nM.

For the molecule `NC(=O)N1CCC(CCc2ccc(-n3c(-c4cccnc4N)nc4ccc(-c5ccccc5)nc43)cc2F)CC1` [Compound I-181], the IC50 in assay [1] was 500 to 2000 nM; in assay [2] it was less than 20000 nM.

As for `Nc1ncccc1-c1nc2ccc(-c3ccccc3)nc2n1-c1ccc(NC[C@H]2CC[C@H](C(=O)O)CC2)nc1` [Compound I-43, (1r,4r)-4-(((5-(2-(2-aminopyridin-3-yl)-5-phenyl-3H-imidazo[4,5-b]pyridin-3-yl)pyridin-2-yl)amino)methyl)cyclohexane-1-carboxylic acid], the IC50 in assay [1] was less than 500 nM; in assay [2] it was less than 20000 nM.

Turning to `Nc1ncccc1-c1nc2ccc(-c3ccccc3)nc2n1-c1ccc(C2CN(CC3CC4CC(C(=O)O)CC4C3)C2)cc1` (stereo not drawn) [Compound I-151], the IC50 is less than 500 nM in assay [1] and less than 20000 nM in assay [2].

Take `Nc1ncccc1-c1nc2ccc(-c3ccccc3)nc2n1-c1ccc(NC(=O)C2CCCC(C(=O)O)C2)cc1` (stereo not drawn) [Compound I-4, 3-[[4-[2-(2-amino-3-pyridyl)-5-phenyl-imidazo[4,5-b]pyridin-3-yl]phenyl]carbamoyl]cyclohexanecarboxylic acid]: the results for the IC50 in assay [1] and in assay [2] were less than 500 nM and less than 20000 nM, respectively.

In the case of `COC(=O)[C@H]1CC[C@H](C(=O)Nc2ccc(-n3c(-c4cccnc4N)nc4ccc(-c5ccccc5)nc43)cn2)CC1` [Compound I-113, methyl (1r,4r)-4-((5-(2-(2-aminopyridin-3-yl)-5-phenyl-3H-imidazo[4,5-b]pyridin-3-yl)pyridin-2-yl)carbamoyl)cyclohexane-1-carboxylate], the results for the IC50 in assay [1] and in assay [2] were 500 to 2000 nM and less than 20000 nM, respectively.

For the molecule `CC1(C)CN(Cc2ccc(-n3c(-c4cccnc4N)nc4ccc(-c5ccccc5)nc43)cc2)CCC1C(=O)O` (stereo not drawn) [Compound I-85, 1-[[4-[2-(2-amino-3-pyridyl)-5-phenyl-imidazo[4,5-b]pyridin-3-yl]phenyl]methyl]-3,3-dimethyl-piperidine-4-carboxylic acid], the IC50 is not below 2000 nM in assay [1] and less than 20000 nM in assay [2].

On to `Cc1nc(N[C@H]2CC[C@H](C(=O)O)CC2)ccc1-n1c(-c2cccnc2N)nc2ccc(-c3ccccc3)nc21` [Compound I-121, (1r,4r)-4-((5-(2-(2-aminopyridin-3-yl)-5-phenyl-3H-imidazo[4,5-b]pyridin-3-yl)-6-methylpyridin-2-yl)amino)cyclohexane-1-carboxylic acid], for which the figures for the IC50 in assay [1] and in assay [2] were less than 500 nM and less than 20000 nM, respectively.

For `Cc1nc(NC(=O)[C@H]2CC[C@H](C(=O)O)CC2)ccc1-n1c(-c2cccnc2N)nc2ccc(-c3cccc(F)c3)nc21` [Compound I-214], the IC50 in assay [1] was less than 500 nM; in assay [2], less than 20000 nM.
